Source: US11573241B2, “Total cellular iron as a marker of cancer stem cells and uses thereof” (Institut National de la Sante et de la Recherche Medicale …, priority 2016, dated 2023)

Key:
[1] = tested on: SW480; assay: Sensibility to AM5; assay type: cell-based; conditions: SW480, Colon
Description: (§1) Cell viability assay. Cell viability assay was carried out by plating 1000 cells/well in 96-well plates. Cells were treated as indicated for 72 h. CellTiter-Blue® Reagent (G8081, Promega) was added after 72 h treatment and cells were incubated for 1 h before recording fluorescence intensities (Excitation, 560/20 nm; Emission, 590/10 nm) using a Perkin Elmer Wallac 1420 Victor2 Microplate Reader.

[2] = tested on: SW620; assay: Sensibility to AM5; assay type: cell-based; conditions: SW620, Colon
Description: as §1

[3] = tested on: MDA-MB-361; assay: Sensibility to AM5; assay type: cell-based, human
Description: as §1

[4] = tested on: Zr75.1; assay: Sensibility to AM5; assay type: cell-based, human; conditions: Zr75.1, H+
Description: as §1

[5] = tested on: BT474; assay: Sensibility to AM5; assay type: cell-based, human
Description: as §1

[6] = tested on: HBL100; assay: Sensibility to AM5; assay type: cell-based, human; conditions: HBL100, Non-tumoral
Description: as §1

[7] = tested on: BT549; assay: Sensibility to AM5; assay type: cell-based, human; conditions: BT549, CSTN
Description: as §1

[8] = tested on: HMLER CD24^high; assay: Sensibility to AM5; assay type: cell-based, human
Description: as §1

[9] = tested on: MDA-MB-134; assay: Sensibility to AM5; assay type: cell-based, human
Description: as §1

[10] = tested on: MCF-7; assay: Sensibility to AM5; assay type: cell-based, human; conditions: MCF-7, H+
Description: as §1

[11] = tested on: MDA-MB-231; assay: Sensibility to AM5; assay type: cell-based, human; conditions: MDA-MB-231, CSTN
Description: as §1

[12] = tested on: primary breast cells; assay: Toxicity against primary breast cells; assay type: cell-based
[13] = tested on: MCF-7 tumors; assay: Perl's reaction, iron(III) in MCF-7 xenograft tumor tissue; assay type: in vivo, mice; conditions: 3 mg/kg body weight/day, intraperitoneal
Description: Xenograft tumor formation experiments. MCF-7 cell cultures were collected, enzymatically dissociated, washed with PBS, and re-suspended in a PBS/Matrigel mixture (1:1 v/v). The mixture (0.1 mL) was then implanted in the mammary fat pad of 5-week-old female AthymicNude-Fox1nu mice bilaterally (Harlan, France). Mice were maintained in individually-ventilated cages (Tecniplast, France) under constant temperature and humidity. All experiments were performed under laminar flow (Tecniplast France). Mice received estradiol supplementation (0.4 mg/kg) the same day and 7 days from cell injection, and were observed and palpated for tumor appearance. Mice were treated with AM5 (3 mg/kg body weight/day) by means of intraperitoneal injections every 5 opened days of the week. Tumor growth was measured weekly using calipers. Tumor volume was determined using the standard formula: L×W^2×0.52, where L and W are the longest and shortest diameters, respectively. All animal studies were approved by the Direction des services Vétérinaires, Prefecture de Police, Paris, France (authorization number A75-14-08) and the ethical committee (number 34) of Paris Descartes University. No randomization was used and experimenters were blinded to drug treatments and tissue analyses.
Perl's reaction. Tumors from mice were removed at time of sacrifice. Tumors were fixed with 4% PFA and embedded in paraffin. […]

[14] = RhoNox-1 reduction assay; conditions: in the presence of iron (II)
Description: RhoNox-1 reduction assay. Experiments were carried in 96-well plate dishes. Reagent stock solutions were freshly prepared using Milli-Q water. 50 μL of solutions of Sal (800 μM), DFO (800 μM) and FeSO4 (80 μM) were mixed prior to addition of 50 μL of RhoNox-1 (40 μM) and completed with the appropriate volume of water to reach a final volume of 200 μL per well. Measurements were performed 30 min after addition of RhoNox-1 to the mix and were recorded using the PARADIGM™ Microplate Detection Platform (ex. 492 nm; em. 580 nm).

SMILES	Sensibility to AM5 [1]	Sensibility to AM5 [2]	Sensibility to AM5 [3]	Sensibility to AM5 [4]	Sensibility to AM5 [5]	Sensibility to AM5 [6]	Sensibility to AM5 [7]	Sensibility to AM5 [8]	Sensibility to AM5 [9]	Sensibility to AM5 [10]	Sensibility to AM5 [11]	toxicity against primary breast cells [12]	iron(III) in tumor tissue [13]	effect on iron reactivity (fluorogenic reduction of RhoNox-1) [14]
C#CCN[C@@H]1C=C[C@]2(O[C@H]([C@@H](CC)C(=O)[C@@H](C)[C@@H](O)[C@H](C)C3O[C@@H](C(CC)C(=O)O)CC[C@@H]3C)[C@@H](C)C[C@H]2C)O[C@@]12CC[C@@](C)([C@H]1CC[C@](O)(CC)[C@H](C)O1)O2 (some centres unmarked) [AM5, Sal-Propargylamine]	Third	Third	Second	First	Second	First	Resistant	First	Second	First	Second	little toxicity	accumulation of iron(III)	
CC[C@@H](C(=O)[C@@H](C)[C@@H](O)[C@H](C)[C@@H]1O[C@@H]([C@@H](CC)C(=O)O)CC[C@@H]1C)[C@H]1O[C@]2(C=C[C@@H](O)[C@]3(CC[C@@](C)([C@H]4CC[C@](O)(CC)[C@H](C)O4)O3)O2)[C@H](C)C[C@@H]1C [Sal, salinomycin, reference compound]														without altering its reactivity
